This note sets out measurements from patent US8748415B2 (priority 2011, dated 2014).

The structures appear in SMILES notation.

The test has as its system recombinant NL4-3 virus (Renilla luciferase in nef, Gag P373S). Put plainly: HIV cell culture assay (luciferase activity in MT-2 cells infected with NLRluc recombinant virus). Format: cell-based. The settings on record: NL43, MT-2 cells infected 4-5 days with NLRluc recombinant virus, class symbol. The procedure:
HIV cell culture assay—MT-2 cells and 293T cells were obtained from the NIH AIDS Research and Reference Reagent Program. MT-2 cells were propagated in RPMI 1640 media supplemented with 10% heat inactivated fetal bovine serum, […]. The 293T cells were propagated in DMEM media supplemented with 10% heat inactivated fetal bovine serum (FBS), 100 units/ml penicillin G and 100 μg/ml streptomycin. The proviral DNA clone of NL4-3 was obtained from the NIH AIDS Research and Reference Reagent Program. A recombinant NL4-3 virus, in which a section of the nef gene from NL4-3 was replaced with the Renilla luciferase gene, was used as a reference virus. In addition, residue Gag P373 was converted to P373S. Briefly, the recombinant virus was prepared by transfection of the altered proviral clone of NL4-3. Transfections were performed in 293T cells using LipofectAMINE PLUS from Invitrogen (Carlsbad, Calif.), according to manufacturer's instruction. The virus was titered in MT-2 cells using luciferase enzyme activity as a marker. Luciferase was quantitated using the Dual Luciferase kit from Promega (Madison, Wis.), with modifications to the manufacturer's protocol. The diluted Passive Lysis solution was pre-mixed with the re-suspended Luciferase Assay Reagent and the re-suspended Stop & Glo Substrate (2:1:1 ratio). Fifty (50) μL of the mixture was added to each aspirated well on assay plates and luciferase activity was measured immediately on a Wallac TriLux (Perkin-Elmer). Antiviral activities of inhibitors toward the recombinant virus were quantified by measuring luciferase activity in cells infected for 4-5 days with NLRluc recombinants in the presence serial dilutions of the inhibitor. Table 1 is the key for the data in Table 2.

The EC50 is the concentration giving half of the maximal effect.

Regarding `C=C(C)[C@@H]1CC[C@]2(CNCCCN3CCS(=O)(=O)CC3)CC[C@]3(C)[C@H](CC[C@@H]4[C@@]5(C)CC=C(c6ccc(C(=O)NS(=O)(=O)N(C)C)cc6)C(C)(C)[C@@H]5CC[C@]43C)[C@@H]12` [Example 171, N-(dimethylsulfamoyl)-4-((1R,3aS,5aR,5bR,7aR,11aS,11bR,13aR,13bR)-3a-(((3-(1,1-dioxido-4-thiomorpholinyl)propyl)amino)methyl)-1-isopropenyl-5a,5b,8,8,11a-pentamethyl-2,3,3a,4,5,5a,5b,6,7,7a,8,11,11a,11b,12,13,13a,13b-octadecahydro-1H-cyclopenta[a]chrysen-9-yl)benzamide], the EC50 is below 100 nM.
Turning to `C=C(C)[C@@H]1CC[C@]2(CNCCC(=O)N3CCS(=O)(=O)CC3)CC[C@]3(C)[C@H](CC[C@@H]4[C@@]5(C)CC=C(c6ccc(C(=O)O)cc6)C(C)(C)[C@@H]5CC[C@]43C)[C@@H]12` [Example 118, 4-((1R,3aS,5aR,5bR,7aR,11aS,11bR,13aR,13bR)-3a-(((3-(1,1-dioxido-4-thiomorpholinyl)-3-oxopropyl)amino)methyl)-1-isopropenyl-5a,5b,8,8,11a-pentamethyl-2,3,3a,4,5,5a,5b,6,7,7a,8,11,11a,11b,12,13,13a,13b-octadecahydro-1H-cyclopenta[a]chrysen-9-yl)benzoic acid], the EC50 was below 100 nM.
For `C=C(C)[C@@H]1CC[C@]2(CNCCCN3CCS(=O)(=O)CC3)CC[C@]3(C)[C@H](CC[C@@H]4[C@@]5(C)CC=C(c6ccc(C(=O)O)cc6)C(C)(C)[C@@H]5CC[C@]43C)[C@@H]12` [Example 14, 4-((1R,3aS,5aR,5bR,7aR,11aS,11bR,13aR,13bR)-5a,5b,8,8,11a-pentamethyl-1-(prop-1-en-2-yl)-3a-((3-(1-dioxo-thiomorpholino)propylamino)methyl)-2,3,3a,4,5,5a,5b,6,7,7a,8,11,11a,11b,12,13,13a,13b-octadecahydro-1H-cyclopenta[a]chrysen-9-yl)benzoic acid], the EC50 was below 100 nM.
Regarding `C=C(C)[C@@H]1CC[C@]2(CNC(=O)CCN(C)C)CC[C@]3(C)[C@H](CC[C@@H]4[C@@]5(C)CC=C(c6ccc(C(=O)O)cc6)C(C)(C)[C@@H]5CC[C@]43C)[C@@H]12` [Example 142, 4-((1R,3aS,5aR,5bR,7aR,11aS,11bR,13aR,13bR)-3a-((3-(dimethylamino)propanamido)methyl)-5a,5b,8,8,11a-pentamethyl-1-(prop-1-en-2-yl)-2,3,3a,4,5,5a,5b,6,7,7a,8,11,11a,11b,12,13,13a,13b-octadecahydro-1H-cyclopenta[a]chrysen-9-yl)benzoic acid], the EC50 was below 100 nM.
`C=C(C)[C@@H]1CC[C@]2(CNC(C)C)CC[C@]3(C)[C@H](CC[C@@H]4[C@@]5(C)CC=C(c6ccc(C(=O)O)cc6)C(C)(C)[C@@H]5CC[C@]43C)[C@@H]12` [Example 175, 4-((1R,3aS,5aR,5bR,7aR,11aS,11bR,13aR,13bR)-3a-((isopropylamino)methyl)-5a,5b,8,8,11a-pentamethyl-1-(prop-1-en-2-yl)-2,3,3a,4,5,5a,5b,6,7,7a,8,11,11a,11b,12,13,13a,13b-octadecahydro-1H-cyclopenta[a]chrysen-9-yl)benzoic acid]: the concentration for a half-maximal effect (EC50) was below 100 nM.
Then `C=C(C)[C@@H]1CC[C@]2(CN3CCS(=O)(=O)CC3)CC[C@]3(C)[C@H](CC[C@@H]4[C@@]5(C)CC=C(c6ccc(C(=O)O)cc6)C(C)(C)[C@@H]5CC[C@]43C)[C@@H]12` [Example 168, 4-((1R,3aS,5aR,5bR,7aR,11aS,11bR,13aR,13bR)-3a-((1,1-dioxido-4-thiomorpholinyl)methyl)-1-isopropenyl-5a,5b,8,8,11a-pentamethyl-2,3,3a,4,5,5a,5b,6,7,7a,8,11,11a,11b,12,13,13a,13b-octadecahydro-1H-cyclopenta[a]chrysen-9-yl)benzoic acid], with below 100 nM; and `C=C(C)[C@@H]1CC[C@]2(CNCCCN3CCNC(=O)C3)CC[C@]3(C)[C@H](CC[C@@H]4[C@@]5(C)CC=C(c6ccc(C(=O)O)cc6)C(C)(C)[C@@H]5CC[C@]43C)[C@@H]12` [Example 23, 4-((1R,3aS,5aR,5bR,7aR,11aS,11bR,13aR,13bR)-5a,5b,8,8,11a-pentamethyl-3a-((3-(3-oxopiperazin-1-yl)propylamino)methyl)-1-(prop-1-en-2-yl)-2,3,3a,4,5,5a,5b,6,7,7a,8,11,11a,11b,12,13,13a,13b-octadecahydro-1H-cyclopenta[a]chrysen-9-yl)benzoic acid], with below 100 nM.
The result for `C=C(C)[C@@H]1CC[C@]2(CN(CCCN3CCS(=O)(=O)CC3)C3CC3)CC[C@]3(C)[C@H](CC[C@@H]4[C@@]5(C)CC=C(c6ccc(C(=O)O)cc6)C(C)(C)[C@@H]5CC[C@]43C)[C@@H]12` [Example 84, 4-((1R,3aS,5aR,5bR,7aR,11aS,11bR,13aR,13bR)-3a-((cyclopropyl(3-(1,1-dioxido-4-thiomorpholinyl)propyl)amino)methyl)-1-isopropenyl-5a,5b,8,8,11a-pentamethyl-2,3,3a,4,5,5a,5b,6,7,7a,8,11,11a,11b,12,13,13a,13b-octadecahydro-1H-cyclopenta[a]chrysen-9-yl)benzoic acid] reads below 100 nM.
`C=C(C)[C@@H]1CC[C@]2(CNCCCN3CCCC3CO)CC[C@]3(C)[C@H](CC[C@@H]4[C@@]5(C)CC=C(c6ccc(C(=O)O)cc6)C(C)(C)[C@@H]5CC[C@]43C)[C@@H]12` (stereo partly drawn) [Example 74, 4-((1R,3aS,5aR,5bR,7aR,11aS,11bR,13aR,13bR)-3a-((3-(2-(hydroxymethyl)pyrrolidin-1-yl)propylamino)methyl)-5a,5b,8,8,11a-pentamethyl-1-(prop-1-en-2-yl)-2,3,3a,4,5,5a,5b,6,7,7a,8,11,11a,11b,12,13,13a,13b-octadecahydro-1H-cyclopenta[a]chrysen-9-yl)benzoic acid]: the EC50 was below 100 nM.
As to `C=C(C)[C@@H]1CC[C@]2(CNCCS(C)(=O)=O)CC[C@]3(C)[C@H](CC[C@@H]4[C@@]5(C)CC=C(c6ccc(C(=O)O)cc6)C(C)(C)[C@@H]5CC[C@]43C)[C@@H]12` [Example 41, 4-((1R,3aS,5aR,5bR,7aR,11aS,11bR,13aR,13bR)-5a,5b,8,8,11a-pentamethyl-3a-((2-(methylsulfonyl)ethylamino)methyl)-1-(prop-1-en-2-yl)-2,3,3a,4,5,5a,5b,6,7,7a,8,11,11a,11b,12,13,13a,13b-octadecahydro-1H-cyclopenta[a]chrysen-9-yl)benzoic acid], the EC50 is below 100 nM.
Regarding `C=C(C)[C@@H]1CC[C@]2(CNCCO)CC[C@]3(C)[C@H](CC[C@@H]4[C@@]5(C)CC=C(c6ccc(C(=O)O)cc6)C(C)(C)[C@@H]5CC[C@]43C)[C@@H]12` [Example 178, 4-((1R,3aS,5aR,5bR,7aR,11aS,11bR,13aR,13bR)-3a-((2-hydroxyethylamino)methyl)-5a,5b,8,8,11a-pentamethyl-1-(prop-1-en-2-yl)-2,3,3a,4,5,5a,5b,6,7,7a,8,11,11a,11b,12,13,13a,13b-octadecahydro-1H-cyclopenta[a]chrysen-9-yl)benzoic acid], the EC50 was below 100 nM.
Then `C=C(C)[C@@H]1CC[C@]2(CNCCCN3CCCS3(=O)=O)CC[C@]3(C)[C@H](CC[C@@H]4[C@@]5(C)CC=C(c6ccc(C(=O)O)cc6)C(C)(C)[C@@H]5CC[C@]43C)[C@@H]12` [Example 40, 4-((1R,3aS,5aR,5bR,7aR,11aS,11bR,13aR,13bR)-3a-(((3-(1,1-dioxido-2-isothiazolidinyl)propyl)amino)methyl)-1-isopropenyl-5a,5b,8,8,11a-pentamethyl-2,3,3a,4,5,5a,5b,6,7,7a,8,11,11a,11b,12,13,13a,13b-octadecahydro-1H-cyclopenta[a]chrysen-9-yl)benzoic acid], with below 100 nM.
Consider `C=C(C)[C@@H]1CC[C@]2(CNCCN3CCNCC3)CC[C@]3(C)[C@H](CC[C@@H]4[C@@]5(C)CC=C(c6ccc(C(=O)O)cc6)C(C)(C)[C@@H]5CC[C@]43C)[C@@H]12` [Example 8, 4-((1R,3aS,5aR,5bR,7aR,11aS,11bR,13aR,13bR)-5a,5b,8,8,11a-pentamethyl-3a-((2-(piperazin-1-yl)ethylamino)methyl)-1-(prop-1-en-2-yl)-2,3,3a,4,5,5a,5b,6,7,7a,8,11,11a,11b,12,13,13a,13b-octadecahydro-1H-cyclopenta[a]chrysen-9-yl)benzoic acid], for which the EC50 was below 100 nM.
As to `C=C(C)[C@@H]1CC[C@]2(CNCCCO)CC[C@]3(C)[C@H](CC[C@@H]4[C@@]5(C)CC=C(c6ccc(C(=O)O)cc6)C(C)(C)[C@@H]5CC[C@]43C)[C@@H]12` [Example 69, 4-((1R,3aS,5aR,5bR,7aR,11aS,11bR,13aR,13bR)-3a-((3-hydroxypropylamino)methyl)-5a,5b,8,8,11a-pentamethyl-1-(prop-1-en-2-yl)-2,3,3a,4,5,5a,5b,6,7,7a,8,11,11a,11b,12,13,13a,13b-octadecahydro-1H-cyclopenta[a]chrysen-9-yl)benzoic acid], the EC50 was below 100 nM.
